# Test results taken from PubChem BioAssay AID2060508 (Molecular Pharmacology Branch, DTP, NCI, 2025).
# System: 454973-116-R2-J3-PDC spheroids, viability, % test/control
# Test: Anticancer human tumor 454973-116-R2-J3-PDC patient-derived pancreatic carcinoma cell line growth inhibition [GQUAD]
# Conditions: spheroids with HUVEC and MSC; for IC50: curve of first compound; for viability, T/C: stronger effect = lower value
# Summary of the method: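 Viability of tumor cells grown as complex spheroids with endothelial and stromal cells, exposed to drug combinations. Top concentration at or near clinical Cmax (else 10 microM), diluted in half-log increments.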
# [1] = second compound 0.0316 µM, first compound 0.0316 µM
# [2] = second compound 0.0316 µM, first compound 0.1 µM
# [3] = second compound 0.0316 µM, first compound 0.316 µM
# [4] = second compound 0.0316 µM, first compound 1 µM
# [5] = second compound 0.0316 µM, first compound 3.16 µM
# [6] = second compound 0.0316 µM, first compound 10 µM
# [7] = second compound 0.1 µM, first compound 0.0316 µM
# [8] = second compound 0.1 µM, first compound 0.1 µM
# [9] = second compound 0.1 µM, first compound 0.316 µM
# [10] = second compound 0.1 µM, first compound 1 µM
# [11] = second compound 0.1 µM, first compound 3.16 µM
# [12] = second compound 0.1 µM, first compound 10 µM
# [13] = second compound 0.316 µM, first compound 0.0316 µM
# [14] = second compound 0.316 µM, first compound 0.1 µM
# [15] = second compound 0.316 µM, first compound 0.316 µM
# [16] = second compound 0.316 µM, first compound 1 µM
# [17] = second compound 0.316 µM, first compound 3.16 µM
# [18] = second compound 0.316 µM, first compound 10 µM
# [19] = second compound 1 µM, first compound 0.0316 µM
# [20] = second compound 1 µM, first compound 0.1 µM
# [21] = second compound 1 µM, first compound 0.316 µM
# [22] = second compound 1 µM, first compound 1 µM
# [23] = second compound 1 µM, first compound 3.16 µM
# [24] = second compound 1 µM, first compound 10 µM
# [25] = second compound 3.16 µM, first compound 0.0316 µM
# [26] = second compound 3.16 µM, first compound 0.1 µM
# [27] = second compound 3.16 µM, first compound 0.316 µM
# [28] = second compound 3.16 µM, first compound 1 µM
# [29] = second compound 3.16 µM, first compound 3.16 µM
# [30] = second compound 3.16 µM, first compound 10 µM
# [31] = second compound 10 µM, first compound 0.0316 µM
# [32] = second compound 10 µM, first compound 0.1 µM
# [33] = second compound 10 µM, first compound 0.316 µM
# [34] = second compound 10 µM, first compound 1 µM
# [35] = second compound 10 µM, first compound 3.16 µM
# [36] = second compound 10 µM, first compound 10 µM
# 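Further: spheroids exposed to compounds for seven days.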
# 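Wherever viability, T/C is given: 100% = DMSO vehicle control viability.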
compound,measurement,setting,value
COc1cc(C2c3cc4c(cc3C(OC3OC5COC(C)OC5C(O)C3O)C3COC(=O)C23)OCO4)cc(OC)c1O (stereo unspecified) + Cc1[nH]c2ccc(F)cc2c1-c1nc2c3cccnc3c3ncccc3c2[nH]1,IC50,second compound 0.0316 µM,1120 nM
same,IC50,second compound 0.1 µM,1300 nM
same,IC50,second compound 0.316 µM,1180 nM
same,IC50,second compound 1 µM,1130 nM
same,IC50,second compound 3.16 µM,1000 nM
same,IC50,second compound 10 µM,1170 nM
same,"viability, T/C",[1],112%
same,"viability, T/C",[2],92.4%
same,"viability, T/C",[3],99.7%
same,"viability, T/C",[4],52%
same,"viability, T/C",[5],22.7%
same,"viability, T/C",[6],13.3%
same,"viability, T/C",[7],103%
same,"viability, T/C",[8],92.3%
same,"viability, T/C",[9],88%
same,"viability, T/C",[10],56.8%
same,"viability, T/C",[11],25.6%
same,"viability, T/C",[12],13.3%
same,"viability, T/C",[13],106%
same,"viability, T/C",[14],101%
same,"viability, T/C",[15],83.7%
same,"viability, T/C",[16],55.6%
same,"viability, T/C",[17],23.9%
same,"viability, T/C",[18],12.4%
same,"viability, T/C",[19],93.7%
same,"viability, T/C",[20],98.3%
same,"viability, T/C",[21],86.2%
same,"viability, T/C",[22],53.5%
same,"viability, T/C",[23],21.2%
same,"viability, T/C",[24],13.5%
same,"viability, T/C",[25],115%
same,"viability, T/C",[26],94.7%
same,"viability, T/C",[27],98.7%
same,"viability, T/C",[28],48.5%
same,"viability, T/C",[29],22.9%
same,"viability, T/C",[30],13.4%
same,"viability, T/C",[31],97.1%
same,"viability, T/C",[32],84.4%
same,"viability, T/C",[33],80.7%
same,"viability, T/C",[34],55.3%
same,"viability, T/C",[35],23%
same,"viability, T/C",[36],13.2%
Cn1ncnc1[C@H]1c2n[nH]c(=O)c3cc(F)cc(c23)N[C@@H]1c1ccc(F)cc1 + CN(C)c1ccc(Nc2c3ccc(NC(=O)CCN4CCCC4)cc3nc3cc(NC(=O)CCN4CCCC4)ccc23)cc1,IC50,second compound 0.0316 µM,> 316 nM
same,IC50,second compound 0.1 µM,> 316 nM
same,IC50,second compound 0.316 µM,> 316 nM
same,IC50,second compound 1 µM,> 316 nM
same,IC50,second compound 3.16 µM,> 316 nM
same,IC50,second compound 10 µM,> 316 nM
same,"viability, T/C","second compound 0.0316 µM, first compound 0.000999 µM",106%
same,"viability, T/C","second compound 0.0316 µM, first compound 0.00316 µM",94.7%
same,"viability, T/C","second compound 0.0316 µM, first compound 0.00999 µM",94.2%
same,"viability, T/C",[1],87%
same,"viability, T/C","second compound 0.0316 µM, first compound 0.0999 µM",90.9%
same,"viability, T/C",[3],80.7%
same,"viability, T/C","second compound 0.1 µM, first compound 0.000999 µM",103%
same,"viability, T/C","second compound 0.1 µM, first compound 0.00316 µM",94%
same,"viability, T/C","second compound 0.1 µM, first compound 0.00999 µM",96.6%
same,"viability, T/C",[7],89.4%
same,"viability, T/C","second compound 0.1 µM, first compound 0.0999 µM",81.6%
same,"viability, T/C",[9],72.3%
same,"viability, T/C","second compound 0.316 µM, first compound 0.000999 µM",95.2%
same,"viability, T/C","second compound 0.316 µM, first compound 0.00316 µM",97.6%
same,"viability, T/C","second compound 0.316 µM, first compound 0.00999 µM",87.3%
same,"viability, T/C",[13],91.7%
same,"viability, T/C","second compound 0.316 µM, first compound 0.0999 µM",77.7%
same,"viability, T/C",[15],71.6%
same,"viability, T/C","second compound 1 µM, first compound 0.000999 µM",90%
same,"viability, T/C","second compound 1 µM, first compound 0.00316 µM",84.7%
same,"viability, T/C","second compound 1 µM, first compound 0.00999 µM",90.8%
same,"viability, T/C",[19],66.4%
same,"viability, T/C","second compound 1 µM, first compound 0.0999 µM",79.8%
same,"viability, T/C",[21],64.3%
same,"viability, T/C","second compound 3.16 µM, first compound 0.000999 µM",90.8%
same,"viability, T/C","second compound 3.16 µM, first compound 0.00316 µM",89.9%
same,"viability, T/C","second compound 3.16 µM, first compound 0.00999 µM",80.8%
same,"viability, T/C",[25],62.8%
same,"viability, T/C","second compound 3.16 µM, first compound 0.0999 µM",82%
same,"viability, T/C",[27],64.6%
same,"viability, T/C","second compound 10 µM, first compound 0.000999 µM",76.1%
same,"viability, T/C","second compound 10 µM, first compound 0.00316 µM",74.6%
same,"viability, T/C","second compound 10 µM, first compound 0.00999 µM",72.5%
same,"viability, T/C",[31],63.8%
same,"viability, T/C","second compound 10 µM, first compound 0.0999 µM",57.8%
same,"viability, T/C",[33],58.9%
CC1COCCN1c1cc(C2(S(C)(=N)=O)CC2)nc(-c2ccnc3[nH]ccc23)n1 (stereo unspecified) + CN(C)c1ccc(Nc2c3ccc(NC(=O)CCN4CCCC4)cc3nc3cc(NC(=O)CCN4CCCC4)ccc23)cc1,IC50,second compound 0.0316 µM,5380 nM
same,IC50,second compound 0.1 µM,5350 nM
same,IC50,second compound 0.316 µM,5980 nM
same,IC50,second compound 1 µM,5140 nM
same,IC50,second compound 3.16 µM,6070 nM
same,IC50,second compound 10 µM,5840 nM
same,"viability, T/C",[1],110%
same,"viability, T/C",[2],105%
same,"viability, T/C",[3],105%
same,"viability, T/C",[4],102%
same,"viability, T/C",[5],64.1%
same,"viability, T/C",[6],33.5%
same,"viability, T/C",[7],109%
same,"viability, T/C",[8],99.4%
same,"viability, T/C",[9],115%
same,"viability, T/C",[10],108%
same,"viability, T/C",[11],62.9%
same,"viability, T/C",[12],34.5%
same,"viability, T/C",[13],104%
same,"viability, T/C",[14],103%
same,"viability, T/C",[15],99.8%
same,"viability, T/C",[16],100%
same,"viability, T/C",[17],71.1%
same,"viability, T/C",[18],33%
same,"viability, T/C",[19],94.4%
same,"viability, T/C",[20],95.1%
same,"viability, T/C",[21],110%
same,"viability, T/C",[22],77.2%
same,"viability, T/C",[23],63.9%
same,"viability, T/C",[24],34.3%
same,"viability, T/C",[25],89%
same,"viability, T/C",[26],90.8%
same,"viability, T/C",[27],90.1%
same,"viability, T/C",[28],82.8%
same,"viability, T/C",[29],66.2%
same,"viability, T/C",[30],37.7%
same,"viability, T/C",[31],80.5%
same,"viability, T/C",[32],82.1%
same,"viability, T/C",[33],83.7%
same,"viability, T/C",[34],78.4%
same,"viability, T/C",[35],59.8%
same,"viability, T/C",[36],41.5%
